Test results taken from ChEMBL document CHEMBL1146610, “Improved gelatinase a selectivity by novel zinc binding groups containing galardin derivatives” (Bioorg Med Chem Lett, 2003).

Columns and labels:
[1] = target: T1, Interstitial collagenase (Homo sapiens, UniProt P03956); test: Inhibition of matrix metalloprotease-1
T1 sequence (P03956 whole entry): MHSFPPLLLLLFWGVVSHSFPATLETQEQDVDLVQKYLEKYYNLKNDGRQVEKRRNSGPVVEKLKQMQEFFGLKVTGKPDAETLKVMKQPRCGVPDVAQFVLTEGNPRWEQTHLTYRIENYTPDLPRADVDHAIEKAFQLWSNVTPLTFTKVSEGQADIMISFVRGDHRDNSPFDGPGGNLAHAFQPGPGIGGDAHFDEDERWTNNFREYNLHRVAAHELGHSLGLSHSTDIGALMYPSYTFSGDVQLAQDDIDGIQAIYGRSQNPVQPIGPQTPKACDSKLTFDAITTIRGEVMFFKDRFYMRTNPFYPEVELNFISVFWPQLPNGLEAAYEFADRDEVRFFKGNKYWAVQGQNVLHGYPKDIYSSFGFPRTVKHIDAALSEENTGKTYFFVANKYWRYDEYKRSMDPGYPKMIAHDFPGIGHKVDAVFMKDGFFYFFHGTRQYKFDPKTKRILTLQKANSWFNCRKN

[2] = target: 72 kDa type IV collagenase (Homo sapiens, UniProt P08253); test: Inhibition of Matrix metalloprotease-2
Chain of 72 kDa type IV collagenase (P08253 whole entry): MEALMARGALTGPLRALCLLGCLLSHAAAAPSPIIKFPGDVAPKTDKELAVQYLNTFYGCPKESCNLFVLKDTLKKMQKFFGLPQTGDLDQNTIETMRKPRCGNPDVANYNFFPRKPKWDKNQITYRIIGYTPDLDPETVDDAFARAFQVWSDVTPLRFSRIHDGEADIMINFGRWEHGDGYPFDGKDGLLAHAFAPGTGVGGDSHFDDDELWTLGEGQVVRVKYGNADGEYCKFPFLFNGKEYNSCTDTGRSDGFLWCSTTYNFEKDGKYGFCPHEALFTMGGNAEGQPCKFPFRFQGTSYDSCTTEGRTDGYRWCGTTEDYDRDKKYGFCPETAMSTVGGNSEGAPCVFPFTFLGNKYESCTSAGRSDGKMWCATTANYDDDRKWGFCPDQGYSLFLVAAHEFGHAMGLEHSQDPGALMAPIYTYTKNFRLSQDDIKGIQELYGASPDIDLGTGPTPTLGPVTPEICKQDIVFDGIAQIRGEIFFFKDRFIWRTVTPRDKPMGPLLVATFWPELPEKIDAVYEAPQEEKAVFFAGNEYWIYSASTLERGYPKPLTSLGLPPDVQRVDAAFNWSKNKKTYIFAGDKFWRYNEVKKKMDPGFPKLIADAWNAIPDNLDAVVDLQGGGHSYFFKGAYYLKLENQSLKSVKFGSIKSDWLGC

| IC50 [1] | IC50 [2] | Compound |
| --- | --- | --- |
| – | 20 nM | CNC(=O)C(Cc1c[nH]c2ccccc12)NC(=O)[C@@H](CC(=O)O)CC(C)C (stereo partly specified) |
| 50 nM | 550 nM | CNC(=O)C(Cc1c[nH]c2ccccc12)NC(=O)[C@@H](CC(=O)NN)CC(C)C (stereo partly specified) |

Second part, the molecule before the results:

| Compound | IC50 [1] | IC50 [2] |
| --- | --- | --- |
| CNC(=O)C(Cc1c[nH]c2ccccc12)NC(=O)[C@@H](CC(=O)Nc1ccccn1)CC(C)C (stereo partly specified) | 60 nM | 50 nM |
| CNC(=O)[C@H](Cc1c[nH]c2ccccc12)NC(=O)[C@@H](CC(=O)c1ccc[nH]1)CC(C)C | 860 nM | 540 nM |
| CNC(=O)C(Cc1c[nH]c2ccccc12)NC(=O)[C@@H](CC(=O)NNS(=O)(=O)c1ccc(C)cc1)CC(C)C (stereo partly specified) | > 10000 nM | 30 nM |
| CNC(=O)[C@H](Cc1c[nH]c2ccccc12)NC(=O)[C@@H](CC(=O)c1ccccn1)CC(C)C | 730 nM | 180 nM |
